Experimental data published in patent US8318725B2, “Aryl indolyl sulfonamide compounds and their use as 5-HT6 ligands” (Suven Life Sciences Limited, priority 2008, dated 2012).
Read-outs that look alike come from different tables or passages of the source.

Key:
[1] = Rodent pharmacokinetic study; assay type: in vivo, Male wistar rats; settings: plasma, Wistar/Male rat, 10 mg/kg; for bioavailability: oral vs intravenous, read-out: Bioavailab; for Cmax / Tmax / half-life / AUC: water; for AUC: read-out: AUC1
Protocol: Rodent Pharmacokinetic Study Male wistar rats (230-280 grams) obtained from NIN (National Institute of Nutrition, Hyderabad, India) were used as an experimental animal. Three to five animals were housed in each cage. Animals were kept fasted over night and maintained on a 12 hours light/dark cycle. Three rats were dosed NCE (10 mg/Kg) orally and intravenously on day 0 and day 2. At each time point blood was collected by jugular vein. Plasma was stored frozen at −20° C. until analysis. The concentrations of the NCE compound in plasma were determined using LC-MS/MS method. Schedule time points: Pre dose 0.25, 0.5, 1, 1.5, 2, 3, 4, 6, 8, 10, 12 and 24 hours after dosing (n=3). The NCE compounds were quantified in plasma by validated LC-MS/MS method using solid phase extraction technique. NCE compounds were quantified in the calibration range of 2-2000 ng/mL in plasma. Study samples were analyzed using calibration samples in the batch and quality control samples spread across the batch. Pharmacokinetic parameters Cmax, Tmax, AUCt, AUCinf, half life, volume of distribution, clearance, mean residence time and thereby oral bioavailability were calculated by non-compartmental model using software WinNonlin version 5.1.

rats = assay: Water maze, scopolamine induced reversal; assay type: in vivo
Protocol: The water maze apparatus consisted of a circular pool (1.8 m diameter, 0.6 m high) constructed in black Perspex (TSE systems, Germany) filled with water (24±2° C.) and positioned underneath a wide-angled video camera to track animal. The 10 cm^2 perspex platform, lying 1 cm below the water surface, was placed in the centre of one of the four imaginary quadrants, which remained constant for all rats. The black Perspex used in the construction of the maze and platform offered no intramaze cues to guide escape behavior. By contrast, the training room offered several strong extramaze visual cues to aid the formation of the spatial map necessary for escape, learning. An automated tracking system, [Videomot 2 (5.51), TSE systems, Germany] was employed. This program analyzes video images acquired via a digital camera and an image acquisition board that determined path length, swim speed and the number of dutation of swim time spent in each quadrant of the water maze.

Male Wister rats = assay: Object recognition task model (NORT); assay type: in vivo; settings: for NORT Discriminative Index (DI), treatment: p.o., vehicle value in brackets; for NORT Inference: at the dose tested (10 or 30 mg/kg, p.o.)
Protocol: Object Recognition Task Model
The cognition-enhancing properties of compounds of this invention were estimated using a model of animal cognition: the object recognition task model.
Male Wister rats (230-280 grams) obtained from N. I. N. (National Institute of Nutrition, Hyderabad, India) were used as experimental animals. Four animals were housed in each cage. Animals were kept on 20% food deprivation before one day and given water ad libitum throughout the experiment and-maintained on a 12 hours light/dark cycle. Also the rats were habituated to individual arenas for 1 hour in the absence of any objects.
One group of 12 rats received vehicle (1 mL/Kg) orally and another set of animals received compound of the formula (I) either orally or i.p., before one hour of the familiar (T1) and choice trial (T2).
The experiment was carried out in a 50×50×50 cm open field made up of acrylic. In the familiarilation phase, (T1), the rats were placed individually in the open field for 3 minutes, in which two identical objects (plastic bottles, 12.5 cm height×5.5 cm diameter) covered in yellow masking tape alone (a1 and a2) were positioned in two adjacent corners, 10 cm. from the walls. After 24 hours of the (T1) trial for long-term memory test, the same rats were placed in the same arena as they were, placed in T1 trial. Choice phase (T2) rats were allowed to explore the open field for 3 minutes in presence of one familiar object (a3) and one novel object (b) (Amber color glass'bottle, 12 cm high and 5 cm in diameter). Familiar objects presented similar textures, colors and sizes. During the T1 and T2 trial, explorations of each object (defined as sniffing, licking, chewing or having moving vibrissae whilst directing the nose towards the object at a distance of less than 1 cm) were recorded separately by stopwatch. Sitting on an object was not regarded as exploratory activity, however, it was rarely observed. T1 is the total time spent exploring the familiar objects (a1+a2). T2 is the total time spent exploring the familiar object and novel object (a3+b).
The object recognition test was performed as described by Ennaceur, A., Delacour, J., 1988, A new one-trial test for neurobiological studies of memory in rats—Behavioral data, Behay. Brain Res., 31, 47-59.
Some representative compounds have shown positive effects indicating the increased novel object recognition viz; increased exploration time with novel object and higher discrimination index.

[2] = Rodent brain penetration study; assay type: in vivo, Male Wister rats; settings: brain homogenate and plasma; Wistar/Male rat, 10 mg/kg, water, Oral (as in table); read-out: Steady State Brain Penetration (Cb/Cp)
Human 5-HT6 receptor = molecular target: T1, Human 5-HT6 receptor (Homo sapiens, UniProt P50406); assay: Binding assay for human 5-HT6 receptor ([3H] LSD radioligand); settings: [3H] LSD 1.5 nM, human recombinant receptor in HEK293 cells
T1 construct: expressed in transfected cells; host or cells: HEK293
Protocol: Binding Assay for Human 5-HT6 Receptor
Compounds can be tested according to the following the procedures. Materials and Methods:
Receptor source: Human recombinant expressed in HEK293 cells
Radioligand: [^3H] LSD (60-80 Ci/mmol)
Final ligand concentration—[1.5 nM]
Non-specific determinant: Methiothepin mesylate—[0.1 μM]
Reference compound: Methiothepin mesylate
Positive control: Methiothepin mesylate
Reactions were carried out in […] TRIS-HCl (pH 7.4) containing 10 μM MgCl2, 0.5 mM EDTA for 60 minutes at 37° C. The reaction was terminated by rapid vacuum filtration onto glass fiber filters. Radioactivity trapped onto the filters was determined and compared to control values in order to ascertain any interactions of test compound(s) with the cloned serotonin 5-HT6binding site.
Literature Reference: Monsma F. J. Jr., et al., Molecular Cloning and Expression of Novel Serotonin Receptor with High Affinity for Tricyclic Psychotropic Drugs. Mol. Pharmacol. (43): 320-327 (1993).

5-HT6 receptor = settings: literature statement; cited from earlier work
[3] = tested on: animal models for schizophrenia; settings: literature statement; cited from earlier work

T1 sequence (P50406 whole entry): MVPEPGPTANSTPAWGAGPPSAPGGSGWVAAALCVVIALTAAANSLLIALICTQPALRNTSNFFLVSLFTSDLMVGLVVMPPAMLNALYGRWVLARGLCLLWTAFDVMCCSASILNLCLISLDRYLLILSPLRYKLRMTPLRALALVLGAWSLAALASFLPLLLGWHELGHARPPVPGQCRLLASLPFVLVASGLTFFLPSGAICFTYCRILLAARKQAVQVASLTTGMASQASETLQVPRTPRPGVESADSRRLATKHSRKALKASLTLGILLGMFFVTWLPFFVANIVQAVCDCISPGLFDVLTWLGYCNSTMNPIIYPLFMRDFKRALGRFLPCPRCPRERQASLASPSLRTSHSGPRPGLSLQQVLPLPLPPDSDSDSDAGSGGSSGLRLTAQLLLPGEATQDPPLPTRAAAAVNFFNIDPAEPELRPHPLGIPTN

| SMILES | bioavailability [1] [%] | Cmax ([1]; Intravenous) [ng/mL] | Tmax ([1]; Intravenous) [h] | half-life ([1]; Intravenous) [h] | AUC ([1]; Intravenous) [ng·h/mL] | Cmax ([1]; Oral) [ng/mL] | Tmax ([1]; Oral) [h] | half-life ([1]; Oral) [h] | AUC ([1]; Oral) [ng·h/mL] | Kp [2] | melting point [°C] | Ki (Human 5-HT6 receptor) [nM] | Scopolamine Induced Reversal (rats) | NORT Inference (Male Wister rats) | also measured |
| --- | --- | --- | --- | --- | --- | --- | --- | --- | --- | --- | --- | --- | --- | --- | --- |
| CN(C)CCC=C1c2ccccc2CCc2ccccc21 [amitriptyline] | – | – | – | – | – | – | – | – | – | – | – | – | – | – | Affinity for the 5-HT6 receptor (5-HT6 receptor): high affinity |
| COc1ccc(NS(=O)(=O)c2sc3ccc(Cl)cc3c2C)cc1N1CCNCC1 [SB-271046, 5-Chloro-N-(4-methoxy-3-piperazin-1-ylphenyl)-3-methyl-2-benzothiophenesulfonamide] | – | – | – | – | – | – | – | – | – | – | – | – | – | – | Activity in animal tests related to positive or negative symptoms of schizophrenia [3]: inactive |
| CN1CCN2c3ccccc3Cc3ccccc3C2C1 (centres unmarked) [mianserin] | – | – | – | – | – | – | – | – | – | – | – | – | – | – | Affinity for the 5-HT6 receptor (5-HT6 receptor): high affinity |

The next lines start with results.

| bioavailability [1] [%] | Cmax ([1]; Intravenous) [ng/mL] | Tmax ([1]; Intravenous) [h] | half-life ([1]; Intravenous) [h] | AUC ([1]; Intravenous) [ng·h/mL] | Cmax ([1]; Oral) [ng/mL] | Tmax ([1]; Oral) [h] | half-life ([1]; Oral) [h] | AUC ([1]; Oral) [ng·h/mL] | Kp [2] | melting point [°C] | Ki (Human 5-HT6 receptor) [nM] | SMILES | Scopolamine Induced Reversal (rats) | NORT Inference (Male Wister rats) | also measured |
| --- | --- | --- | --- | --- | --- | --- | --- | --- | --- | --- | --- | --- | --- | --- | --- |
| 14 ± 10 | 4680 ± 617 | 0.08 | 6.25 ± 0.35 | 4070 ± 888 | 749 ± 836 | 0.5 ± 0.43 | 3.18 ± 1.71 | 1170 ± 1050 | 0.53 ± 0.13 | 250.13 | 3.96 | CCN1CCN(Cc2cc(S(=O)(=O)n3ccc4ccccc43)ccc2C)CC1.Cl.Cl [Example 23, 1-[4-methyl-3-(4-ethylpiperazin-1-ylmethyl)benzenesulfonyl]-1H-indole dihydrochloride] | ≧30 mg/kg, p.o | Active | NORT Discriminative Index (DI), treatment (Male Wister rats; 30 mg/kg): 0.58 (0.49) |
| 30 ± 7 | 4320 ± 1680 | 0.08 | 2.69 ± 1.51 | 5130 ± 1750 | 1380 ± 427 | 0.38 ± 0.18 | 7.85 ± 2.62 | 3190 ± 1750 | 2.03 ± 0.42 | – | 7.01 | Cc1ccc(S(=O)(=O)n2ccc3ccccc32)cc1CN1CCN(C)CC1.Cl.Cl [Example 22, 1-[4-methyl-3-(4-methylpiperazin-1-ylmethyl)benzenesulfonyl]-1H-indole dihydrochloride] | >30 mg/kg, p.o | Active | NORT Discriminative Index (DI), treatment (Male Wister rats; 10 mg/kg): 0.57 (0.54) |
| – | – | – | – | – | – | – | – | – | – | – | 1.91 | CN1CCN(Cc2cccc(S(=O)(=O)n3ccc4ccccc43)c2)CC1 [Example 8, 1-[3-(4-Methylpiperazin-1-ylmethyl)benzenesulfonyl]-1H-indole] | ≧30 mg/kg, p.o | Active | NORT Discriminative Index (DI), treatment (Male Wister rats; 10 mg/kg): 0.58 (0.45) |
| 10 ± 6 | 481 ± 331 | 0.08 | 5.84 ± 2.21 | 808 ± 156 | 106 ± 1 | 0.38 ± 0.18 | 1.73 ± 0.56 | 342 ± 152 | 1.61 ± 0.39 | 216.9 to 218.7 | 5.45 | Cc1cn(S(=O)(=O)c2ccc(Cl)c(CN3CCN(C)CC3)c2)c2ccccc12.Cl.Cl [Example 35, 1-[4-Chloro-3-(4-methylpiperazin-1-ylmethyl)benzenesulfonyl]-3-methyl-1H-indole dihydrochloride] | >30 mg/kg, p.o | Active | NORT Discriminative Index (DI), treatment (Male Wister rats; 30 mg/kg): 0.63 (0.49) |
| – | – | – | – | – | – | – | – | – | – | 208.6 to 212.8 | – | CCN1CCN(Cc2cc(S(=O)(=O)n3ccc4cc(Br)ccc43)ccc2Cl)CC1.Cl.Cl [Example 29, 1-[4-Chloro-3-(4-ethylpiperazin-1-ylmethyl)benzenesulfonyl]-5-bromo-1H-indole dihydrochloride] | – | – | inhibition at 0.1 µM (Human 5-HT6 receptor; 100 nM test compound, read-out: % Inhibition of specific binding at 100 nM): 71.8% |
